Assay results from US9302999B2, “Substituted triazoles as herbicides” (E. I. DU PONT DE NEMOURS AND COMPANY, priority 2012, dated 2016).

Columns and labels:
Format in all cases: in vivo
[1] = tested on: barnyardgrass (Echinochloa crus-galli); assay: Test A pre-/postemergence: barnyardgrass; details: for Barnyardgrass plant response rating: Postemergence; for Plant response rating, Barnyardgrass: Preemergence
Procedure, shortened: (§1)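 Visual 0–100 injury ratings (0 no effect, 100 complete control) taken about ten days after treatment, relative to untreated controls. Preemergence treatment was a directed soil spray; postemergence plants were 2–10 cm tall at one- to two-leaf stage. Soil: loam/sand blend.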

[2] = tested on: crabgrass, large (large crabgrass, Digitaria sanguinalis); assay: Test A pre-/postemergence: crabgrass, large; details: for Crabgrass, Large plant response rating: Postemergence; for Plant response rating, Crabgrass, Large: Preemergence
Procedure, shortened: as §1

[3] = tested on: foxtail, giant (giant foxtail, Setaria faberii); assay: Test A pre-/postemergence: foxtail, giant; details: for Foxtail, Giant plant response rating: Postemergence; for Plant response rating, Foxtail, Giant: Preemergence
Procedure, shortened: as §1

[4] = tested on: morningglory (Ipomoea spp.); assay: Test A pre-/postemergence: morningglory; details: for Morningglory plant response rating: Postemergence; for Plant response rating, Morningglory: Preemergence
Procedure, shortened: as §1

[5] = tested on: pigweed (Amaranthus retroflexus); assay: Test A pre-/postemergence: pigweed; details: for Pigweed plant response rating: Postemergence; for Plant response rating, Pigweed: Preemergence
Procedure, shortened: as §1

[6] = tested on: velvetleaf (Abutilon theophrasti); assay: Test A pre-/postemergence: velvetleaf; details: for Velvetleaf plant response rating: Postemergence; for Plant response rating, Velvetleaf: Preemergence
Procedure, shortened: as §1

[7] = tested on: wheat (Triticum aestivum); assay: Test A pre-/postemergence: wheat; details: for Wheat plant response rating: Postemergence; for Plant response rating, Wheat: Preemergence
Procedure, shortened: as §1

[8] = tested on: corn (Zea mays); assay: Test A pre-/postemergence: corn; details: for Corn plant response rating: Postemergence; for Plant response rating, Corn: Preemergence
Procedure, shortened: as §1

[9] = tested on: rice (Oryza sativa); assay: Test C flooded paddy test: rice; details: scale 0 to 100 (0 no effect, 100 complete control)
Procedure, shortened: (§2)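 Rating: visual, 0–100 (100 = complete control), versus untreated controls after 13 to 15 greenhouse days. Treatment went into paddy water held at 3 cm over the soil, on plants grown to two leaves.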

[10] = tested on: sedge, umbrella (small-flower umbrella sedge, Cyperus difformis); assay: Test C flooded paddy test: sedge, umbrella; details: scale 0 to 100 (0 no effect, 100 complete control)
Procedure, shortened: as §2

[11] = tested on: ducksalad (Heteranthera limosa); assay: Test C flooded paddy test: ducksalad; details: scale 0 to 100 (0 no effect, 100 complete control)
Procedure, shortened: as §2

[12] = tested on: barnyardgrass (Echinochloa crus-galli); assay: Test C flooded paddy test: barnyardgrass; details: scale 0 to 100 (0 no effect, 100 complete control)
Procedure, shortened: as §2

[13] = 125 g ai/ha, 0 to 100 scale, 0 is no effect, 100 is complete control
[14] = 500 g ai/ha, visual rating on 0 to 100 scale (0 no effect, 100 complete control), approximately ten days
[15] = 125 g ai/ha, 0 to 100 scale (0 no effect, 100 complete control)
[16] = 500 g ai/ha, 0 to 100 scale, 0 is no effect, 100 is complete control
[17] = Flood (flooded paddy test), 62 g ai/ha, visual rating after 13 to 15 days
[18] = Flood (flooded paddy test), 125 g ai/ha, visual rating after 13 to 15 days
[19] = Flood (flooded paddy test), 250 g ai/ha, visual rating after 13 to 15 days

Cc1nn(-c2ccc(C(F)F)cn2)nc1C(=O)c1cccc(C(F)(F)F)c1 [Compound 68]
Barnyardgrass plant response rating [1, 13]: 0 | Barnyardgrass plant response rating [1, 14]: 10 | Plant response rating, Barnyardgrass [1, 15]: 0 | Plant response rating, Barnyardgrass [1, 16]: 0 | Crabgrass, Large plant response rating [2, 13]: 10 | Crabgrass, Large plant response rating [2, 14]: 10 | Plant response rating, Crabgrass, Large [2, 15]: 0 | Plant response rating, Crabgrass, Large [2, 16]: 0 | Foxtail, Giant plant response rating [3, 13]: 10 | Foxtail, Giant plant response rating [3, 14]: 10 | Plant response rating, Foxtail, Giant [3, 15]: 0 | Plant response rating, Foxtail, Giant [3, 16]: 0 | Morningglory plant response rating [4, 13]: 0 | Morningglory plant response rating [4, 14]: 10 | Plant response rating, Morningglory [4, 15]: 0 | Plant response rating, Morningglory [4, 16]: 0 | Pigweed plant response rating [5, 13]: 10 | Pigweed plant response rating [5, 14]: 50 | Plant response rating, Pigweed [5, 15]: 0 | Plant response rating, Pigweed [5, 16]: 0 | Velvetleaf plant response rating [6, 14]: 0 | Plant response rating, Velvetleaf [6, 15]: 0 | Plant response rating, Velvetleaf [6, 16]: 0 | Wheat plant response rating [7, 13]: 0 | Wheat plant response rating [7, 14]: 10 | Plant response rating, Wheat [7, 15]: 0 | Plant response rating, Wheat [7, 16]: 0 | Corn plant response rating [8, 13]: 0 | Corn plant response rating [8, 14]: 10 | Plant response rating, Corn [8, 15]: 0 | Plant response rating, Corn [8, 16]: 0 | Plant response rating, Rice [9, 17]: 0 | Plant response rating, Rice [9, 18]: 0 | Plant response rating, Rice [9, 19]: 0 | Plant response rating, Rice ([9]; Flood, 31 g ai/ha): 0 | Plant response rating, Sedge, Umbrella [10, 17]: 0 | Plant response rating, Sedge, Umbrella [10, 18]: 0 | Plant response rating, Sedge, Umbrella [10, 19]: 0 | Plant response rating, Sedge, Umbrella ([10]; Flood, 31 g ai/ha): 0 | Plant response rating, Ducksalad [11, 17]: 0 | Plant response rating, Ducksalad [11, 18]: 0 | Plant response rating, Ducksalad [11, 19]: 0 | Plant response rating, Ducksalad ([11]; Flood, 31 g ai/ha): 0 | Plant response rating, Barnyardgrass [12, 17]: 0 | Plant response rating, Barnyardgrass [12, 18]: 0 | Plant response rating, Barnyardgrass [12, 19]: 0 | Plant response rating, Barnyardgrass ([12]; Flood, 31 g ai/ha): 0

Cc1nn(-c2ccc(Cl)nc2)nc1C(=O)c1cccc(C(F)(F)F)c1 [Compound 72]
Barnyardgrass plant response rating [1, 13]: 0 | Barnyardgrass plant response rating [1, 14]: 10 | Plant response rating, Barnyardgrass [1, 15]: 0 | Plant response rating, Barnyardgrass [1, 16]: 0 | Crabgrass, Large plant response rating [2, 13]: 0 | Crabgrass, Large plant response rating [2, 14]: 10 | Plant response rating, Crabgrass, Large [2, 15]: 0 | Plant response rating, Crabgrass, Large [2, 16]: 10 | Foxtail, Giant plant response rating [3, 13]: 0 | Foxtail, Giant plant response rating [3, 14]: 10 | Plant response rating, Foxtail, Giant [3, 15]: 0 | Plant response rating, Foxtail, Giant [3, 16]: 20 | Morningglory plant response rating [4, 13]: 0 | Morningglory plant response rating [4, 14]: 10 | Plant response rating, Morningglory [4, 15]: 0 | Plant response rating, Morningglory [4, 16]: 0 | Pigweed plant response rating [5, 13]: 10 | Pigweed plant response rating [5, 14]: 70 | Plant response rating, Pigweed [5, 15]: 0 | Plant response rating, Pigweed [5, 16]: 10 | Velvetleaf plant response rating [6, 13]: 0 | Velvetleaf plant response rating [6, 14]: 10 | Plant response rating, Velvetleaf [6, 15]: 0 | Plant response rating, Velvetleaf [6, 16]: 0 | Wheat plant response rating [7, 13]: 0 | Wheat plant response rating [7, 14]: 0 | Plant response rating, Wheat [7, 15]: 0 | Plant response rating, Wheat [7, 16]: 0 | Corn plant response rating [8, 13]: 0 | Corn plant response rating [8, 14]: 10 | Plant response rating, Corn [8, 15]: 0 | Plant response rating, Corn [8, 16]: 0 | Plant response rating, Rice [9, 17]: 0 | Plant response rating, Rice [9, 18]: 0 | Plant response rating, Rice [9, 19]: 0 | Plant response rating, Rice ([9]; Flood, 31 g ai/ha): 0 | Plant response rating, Sedge, Umbrella [10, 17]: 0 | Plant response rating, Sedge, Umbrella [10, 18]: 0 | Plant response rating, Sedge, Umbrella [10, 19]: 0 | Plant response rating, Sedge, Umbrella ([10]; Flood, 31 g ai/ha): 0 | Plant response rating, Ducksalad [11, 17]: 0 | Plant response rating, Ducksalad [11, 18]: 0 | Plant response rating, Ducksalad [11, 19]: 0 | Plant response rating, Ducksalad ([11]; Flood, 31 g ai/ha): 0 | Plant response rating, Barnyardgrass [12, 17]: 0 | Plant response rating, Barnyardgrass [12, 18]: 0 | Plant response rating, Barnyardgrass [12, 19]: 0 | Plant response rating, Barnyardgrass ([12]; Flood, 31 g ai/ha): 0

Cc1nn(-c2ccc(C(F)(F)F)cc2)nc1Oc1ccnc(OCC(F)(F)F)c1 [Compound 77]
Barnyardgrass plant response rating [1, 13]: 0 | Barnyardgrass plant response rating [1, 14]: 10 | Plant response rating, Barnyardgrass [1, 15]: 0 | Plant response rating, Barnyardgrass [1, 16]: 0 | Crabgrass, Large plant response rating [2, 13]: 10 | Crabgrass, Large plant response rating [2, 14]: 20 | Plant response rating, Crabgrass, Large [2, 15]: 0 | Plant response rating, Crabgrass, Large [2, 16]: 10 | Foxtail, Giant plant response rating [3, 13]: 10 | Foxtail, Giant plant response rating [3, 14]: 20 | Plant response rating, Foxtail, Giant [3, 15]: 0 | Plant response rating, Foxtail, Giant [3, 16]: 10 | Morningglory plant response rating [4, 13]: 10 | Morningglory plant response rating [4, 14]: 10 | Plant response rating, Morningglory [4, 15]: 0 | Plant response rating, Morningglory [4, 16]: 0 | Pigweed plant response rating [5, 13]: 90 | Pigweed plant response rating [5, 14]: 100 | Plant response rating, Pigweed [5, 15]: 0 | Plant response rating, Pigweed [5, 16]: 10 | Velvetleaf plant response rating [6, 13]: 10 | Velvetleaf plant response rating [6, 14]: 10 | Plant response rating, Velvetleaf [6, 15]: 0 | Plant response rating, Velvetleaf [6, 16]: 0 | Wheat plant response rating [7, 13]: 0 | Wheat plant response rating [7, 14]: 0 | Plant response rating, Wheat [7, 15]: 0 | Plant response rating, Wheat [7, 16]: 0 | Corn plant response rating [8, 13]: 0 | Corn plant response rating [8, 14]: 10 | Plant response rating, Corn [8, 15]: 0 | Plant response rating, Corn [8, 16]: 0 | Plant response rating, Rice [9, 18]: 0 | Plant response rating, Rice [9, 19]: 0 | Plant response rating, Rice ([9]; Flood, 31 g ai/ha): 0 | Plant response rating, Rice ([9]; Flood, 62 g ai/ha): 0 | Plant response rating, Sedge, Umbrella [10, 18]: 0 | Plant response rating, Sedge, Umbrella [10, 19]: 0 | Plant response rating, Sedge, Umbrella ([10]; Flood, 31 g ai/ha): 0 | Plant response rating, Sedge, Umbrella ([10]; Flood, 62 g ai/ha): 0 | Plant response rating, Ducksalad [11, 18]: 0 | Plant response rating, Ducksalad [11, 19]: 0 | Plant response rating, Ducksalad ([11]; Flood, 31 g ai/ha): 0 | Plant response rating, Ducksalad ([11]; Flood, 62 g ai/ha): 0 | Plant response rating, Barnyardgrass [12, 18]: 0 | Plant response rating, Barnyardgrass [12, 19]: 0 | Plant response rating, Barnyardgrass ([12]; Flood, 31 g ai/ha): 0 | Plant response rating, Barnyardgrass ([12]; Flood, 62 g ai/ha): 0

COc1nn(-c2ccc(C(F)(F)F)cc2)nc1C(O)c1ccnc(C(F)(F)F)c1 (centres unmarked) [Compound 78]
Barnyardgrass plant response rating [1, 13]: 0 | Barnyardgrass plant response rating [1, 14]: 10 | Plant response rating, Barnyardgrass [1, 15]: 0 | Plant response rating, Barnyardgrass [1, 16]: 20 | Crabgrass, Large plant response rating [2, 13]: 10 | Crabgrass, Large plant response rating [2, 14]: 20 | Plant response rating, Crabgrass, Large [2, 15]: 60 | Plant response rating, Crabgrass, Large [2, 16]: 80 | Foxtail, Giant plant response rating [3, 13]: 10 | Foxtail, Giant plant response rating [3, 14]: 30 | Plant response rating, Foxtail, Giant [3, 15]: 20 | Plant response rating, Foxtail, Giant [3, 16]: 70 | Morningglory plant response rating [4, 13]: 0 | Morningglory plant response rating [4, 14]: 40 | Plant response rating, Morningglory [4, 15]: 0 | Plant response rating, Morningglory [4, 16]: 10 | Pigweed plant response rating [5, 13]: 50 | Pigweed plant response rating [5, 14]: 90 | Plant response rating, Pigweed [5, 15]: 60 | Plant response rating, Pigweed [5, 16]: 70 | Velvetleaf plant response rating [6, 13]: 10 | Velvetleaf plant response rating [6, 14]: 20 | Plant response rating, Velvetleaf [6, 15]: 10 | Plant response rating, Velvetleaf [6, 16]: 20 | Wheat plant response rating [7, 13]: 0 | Wheat plant response rating [7, 14]: 0 | Plant response rating, Wheat [7, 15]: 0 | Plant response rating, Wheat [7, 16]: 0 | Corn plant response rating [8, 13]: 0 | Corn plant response rating [8, 14]: 10 | Plant response rating, Corn [8, 15]: 0 | Plant response rating, Corn [8, 16]: 0 | Plant response rating, Rice [9, 18]: 0 | Plant response rating, Rice [9, 19]: 0 | Plant response rating, Rice ([9]; Flood, 31 g ai/ha): 0 | Plant response rating, Rice ([9]; Flood, 62 g ai/ha): 0 | Plant response rating, Sedge, Umbrella [10, 18]: 0 | Plant response rating, Sedge, Umbrella [10, 19]: 0 | Plant response rating, Sedge, Umbrella ([10]; Flood, 31 g ai/ha): 0 | Plant response rating, Sedge, Umbrella ([10]; Flood, 62 g ai/ha): 0 | Plant response rating, Ducksalad [11, 18]: 0 | Plant response rating, Ducksalad [11, 19]: 0 | Plant response rating, Ducksalad ([11]; Flood, 31 g ai/ha): 0 | Plant response rating, Ducksalad ([11]; Flood, 62 g ai/ha): 0 | Plant response rating, Barnyardgrass [12, 18]: 0 | Plant response rating, Barnyardgrass [12, 19]: 20 | Plant response rating, Barnyardgrass ([12]; Flood, 31 g ai/ha): 0 | Plant response rating, Barnyardgrass ([12]; Flood, 62 g ai/ha): 0
